# Test system: Mycobacterium tuberculosis variant bovis
# Assay: Antituberculosis activity against Mycobacterium bovis after 14 days by serial microdilution method
# Format: functional
# Conditions: 336 h
row,SMILES,MIC99 [µg/mL]
1,CO[C@H]1/C=C/O[C@@]2(C)Oc3c(C)c(O)c4c(O)c(c(C=O)c(O)c4c3C2=O)NC(=O)/C(C)=C\C=C\[C@H](C)[C@H](O)[C@@H](C)[C@@H](O)[C@@H](C)[C@H](OC(C)=O)[C@@H]1C,> 1
2,CO[C@H]1/C=C/O[C@@]2(C)Oc3c(C)c(O)c4c(O)c(c(CNCCN(C)C)c(O)c4c3C2=O)NC(=O)/C(C)=C\C=C\[C@H](C)[C@H](O)[C@@H](C)[C@@H](O)[C@@H](C)[C@H](OC(C)=O)[C@@H]1C,> 1
3,CO[C@H]1/C=C/O[C@@]2(C)Oc3c(C)c(O)c4c(O)c(c(CNCCN5CCCC5)c(O)c4c3C2=O)NC(=O)/C(C)=C\C=C\[C@H](C)[C@H](O)[C@@H](C)[C@@H](O)[C@@H](C)[C@H](OC(C)=O)[C@@H]1C,1
4,CO[C@H]1/C=C/O[C@@]2(C)Oc3c(C)c(O)c4c(O)c(c(CNCCCN5CCCC5)c(O)c4c3C2=O)NC(=O)/C(C)=C\C=C\[C@H](C)[C@H](O)[C@@H](C)[C@@H](O)[C@@H](C)[C@H](OC(C)=O)[C@@H]1C,1
5,CO[C@H]1/C=C/O[C@@]2(C)Oc3c(C)c(O)c4c(O)c(c(CNCCCn5ccnc5)c(O)c4c3C2=O)NC(=O)/C(C)=C\C=C\[C@H](C)[C@H](O)[C@@H](C)[C@@H](O)[C@@H](C)[C@H](OC(C)=O)[C@@H]1C,1
6,CO[C@H]1/C=C/O[C@@]2(C)Oc3c(C)c(O)c4c(O)c(c(CNC5CCN(Cc6ccccc6)CC5)c(O)c4c3C2=O)NC(=O)/C(C)=C\C=C\[C@H](C)[C@H](O)[C@@H](C)[C@@H](O)[C@@H](C)[C@H](OC(C)=O)[C@@H]1C,0.125
7,CO[C@H]1/C=C/O[C@@]2(C)Oc3c(C)c(O)c4c(O)c(c(CNCCCN5CCN(CCCNCc6c7c(O)c8c(O)c(C)c9c(c8c6O)C(=O)[C@@](C)(O/C=C/[C@H](OC)[C@@H](C)[C@@H](OC(C)=O)[C@H](C)[C@H](O)[C@H](C)[C@@H](O)[C@@H](C)/C=C/C=C(/C)C(=O)N7)O9)CC5)c(O)c4c3C2=O)NC(=O)/C(C)=C\C=C\[C@H](C)[C@H](O)[C@@H](C)[C@@H](O)[C@@H](C)[C@H](OC(C)=O)[C@@H]1C,> 1
8,CCCc1cn(CCNCc2c3c(O)c4c(O)c(C)c5c(c4c2O)C(=O)[C@@](C)(O/C=C/[C@H](OC)[C@@H](C)[C@@H](OC(C)=O)[C@H](C)[C@H](O)[C@H](C)[C@@H](O)[C@@H](C)/C=C/C=C(/C)C(=O)N3)O5)nn1,1
9,CCCCCc1cn(CCCNCc2c3c(O)c4c(O)c(C)c5c(c4c2O)C(=O)[C@@](C)(O/C=C/[C@H](OC)[C@@H](C)[C@@H](OC(C)=O)[C@H](C)[C@H](O)[C@H](C)[C@@H](O)[C@@H](C)/C=C/C=C(/C)C(=O)N3)O5)nn1,0.5
10,CO[C@H]1/C=C/O[C@@]2(C)Oc3c(C)c(O)c4c(O)c(c(CNCc5cn(CN6C(=O)c7ccccc7C6=O)nn5)c(O)c4c3C2=O)NC(=O)/C(C)=C\C=C\[C@H](C)[C@H](O)[C@@H](C)[C@@H](O)[C@@H](C)[C@H](OC(C)=O)[C@@H]1C,0.25
11,CCCc1cn(CCN2Cc3c4c(O)c5c(O)c(C)c6c(c5c3O)C(=O)[C@@](C)(O/C=C/[C@H](OC)[C@@H](C)[C@@H](OC(C)=O)[C@H](C)[C@H](O)[C@H](C)[C@@H](O)[C@@H](C)/C=C/C=C(/C)C2=N4)O6)nn1,0.5
12,CCCCCc1cn(CCCN2Cc3c4c(O)c5c(O)c(C)c6c(c5c3O)C(=O)[C@@](C)(O/C=C/[C@H](OC)[C@@H](C)[C@@H](OC(C)=O)[C@H](C)[C@H](O)[C@H](C)[C@@H](O)[C@@H](C)/C=C/C=C(/C)C2=N4)O6)nn1,0.5
13,CO[C@H]1/C=C/O[C@@]2(C)Oc3c(C)c(O)c4c(O)c5c(c(O)c4c3C2=O)CN(Cc2cn(CN3C(=O)c4ccccc4C3=O)nn2)C(=N5)/C(C)=C\C=C\[C@H](C)[C@H](O)[C@@H](C)[C@@H](O)[C@@H](C)[C@H](OC(C)=O)[C@@H]1C,0.5
14,CO[C@H]1/C=C\O[C@@]2(C)Oc3c(C)c(O)c4c(O)c(c(CNC5CCN(Cc6ccccc6)CC5)c(O)c4c3C2=O)NC(=O)/C(C)=C\C=C/[C@H](C)[C@H](O)[C@@H](C)[C@@H](O)[C@@H](C)[C@H](OC(C)=O)[C@@H]1C,0.125
15,CO[C@H]1/C=C/O[C@@]2(C)Oc3c(C)c(O)c4c(O)c(c(/C=N/N5CCN(C)CC5)c(O)c4c3C2=O)NC(=O)/C(C)=C\C=C\[C@H](C)[C@H](O)[C@@H](C)[C@@H](O)[C@@H](C)[C@H](OC(C)=O)[C@@H]1C [RIFAMPIN],0.25

# Reference: ChEMBL document CHEMBL3352679, “Structure and evaluation of antibacterial and antitubercular properties of new basic and heterocyclic 3-formylrifamycin SV derivatives obtained via 'click chemistry' approach” (Eur J Med Chem, 2014)
